Active and inactive are the calls of the source. The calls are words filed in the database; no cut-off is given here.
Tests used:
[1] = biological target: T1, Histone-lysine N-methyltransferase EZH2 (Homo sapiens, UniProt Q15910); experiment: Inhibition of EZH2 in human ASPC1 cells assessed as decrease in H3K27me3 levels at 1 uM incubated for 72 hrs by Western blot analysis; assay type: cell-based
Target sequence in this assay (Q15910 whole entry, looked up, the tested form may be a part): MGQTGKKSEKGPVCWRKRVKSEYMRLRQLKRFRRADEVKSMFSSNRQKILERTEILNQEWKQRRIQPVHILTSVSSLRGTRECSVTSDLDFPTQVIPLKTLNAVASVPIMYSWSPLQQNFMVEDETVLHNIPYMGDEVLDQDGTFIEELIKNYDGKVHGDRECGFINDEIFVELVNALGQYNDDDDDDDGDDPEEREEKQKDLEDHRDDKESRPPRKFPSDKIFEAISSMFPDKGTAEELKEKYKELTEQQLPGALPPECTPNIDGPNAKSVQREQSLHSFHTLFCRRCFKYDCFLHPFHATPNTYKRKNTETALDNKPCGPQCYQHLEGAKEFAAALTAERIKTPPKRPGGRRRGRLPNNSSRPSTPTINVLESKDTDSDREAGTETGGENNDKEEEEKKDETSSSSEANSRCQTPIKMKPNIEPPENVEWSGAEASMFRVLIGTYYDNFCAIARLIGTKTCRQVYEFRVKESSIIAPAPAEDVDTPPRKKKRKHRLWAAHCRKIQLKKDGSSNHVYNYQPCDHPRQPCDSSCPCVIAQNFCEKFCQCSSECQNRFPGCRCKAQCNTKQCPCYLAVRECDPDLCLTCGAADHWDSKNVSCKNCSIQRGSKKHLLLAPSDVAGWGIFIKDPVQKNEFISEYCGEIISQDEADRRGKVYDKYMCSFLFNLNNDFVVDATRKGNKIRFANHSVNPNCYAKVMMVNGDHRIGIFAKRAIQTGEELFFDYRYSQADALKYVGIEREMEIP

[2] = biological target: T2, Bromodomain-containing protein 4 (Homo sapiens, UniProt O60885); experiment: Displacement of fluorescein-labeled JQ1 from His6/TEV cleavage site fused human BRD4 (residues N44 to E168) expressed in Escherichia coli BL21 (DE3) incubated for 60 min by Fluorescence polarization assay
[3] = biological target: T1, Histone-lysine N-methyltransferase EZH2
Target sequence in this assay (Q15910 whole entry, the tested form may be a part): as the sequence (Q15910 whole entry, looked up, the tested form may be a part) above

ASPC1 = experiment: Antiproliferative activity against human ASPC1 cells assessed as cell growth inhibition incubated for 6 days by MTS assay; assay type: functional, cell-based; conditions: ASPC1, 144 h
HCT-116 = experiment: Induction of apoptosis in human HCT116 cells assessed as early apoptotic cells at 10 uM measured after 72 hrs by flow cytometry (reference value: 2.8 %); assay type: functional
[4] = biological target: T2, Bromodomain-containing protein 4; experiment: Inhibition of BRD4 in human ASPC1 cells assessed as decrease in c-Myc level at 1 uM incubated for 72 hrs by Western blot analysis; assay type: cell-based

Row | SMILES | inhibition [1] | IC50 [2] [nM] | IC50 [3] [nM] | IC50 (ASPC1; read-out: IC50) [nM] | Activity (HCT-116) [%] | inhibition [4] | IC50 (ASPC1) [nM]
1 | CCN(c1cc(-c2ccc(CCNC(=O)C[C@@H]3N=C(c4ccc(Cl)cc4)c4c(sc(C)c4C)-n4c(C)nnc43)cc2)cc(C(=O)NCc2c(C)cc(C)[nH]c2=O)c1C)C1CCOCC1 | Active | 945 | 77800 | 2610 |  |  | 
2 | CCN(c1cc(-c2ccc(CN3CCOCC3)cc2)cc(C(=O)NCc2c(C)cc(C)[nH]c2=O)c1C)C1CCOCC1 [TAZEMETOSTAT] |  |  |  | > 30000 | 2.8 |  | 
3 | CCN(c1cc(-c2ccc(OCCCCNC(=O)C[C@@H]3N=C(c4ccc(Cl)cc4)c4c(sc(C)c4C)-n4c(C)nnc43)cc2)cc(C(=O)NCc2c(C)cc(C)[nH]c2=O)c1C)C1CCOCC1 | Active | 82 | 420 | 990 |  | Active | 
4 | CCN(c1cc(-c2ccc(NC(=O)CCOCCOCCOCCNC(=O)C[C@@H]3N=C(c4ccc(Cl)cc4)c4c(sc(C)c4C)-n4c(C)nnc43)cc2)cc(C(=O)NCc2c(C)cc(C)[nH]c2=O)c1C)C1CCOCC1 |  | 604 | 1040 | 9250 |  |  | 
5 | CCN(c1cc(-c2ccc(CNC(=O)C[C@@H]3N=C(c4ccc(Cl)cc4)c4c(sc(C)c4C)-n4c(C)nnc43)cc2)cc(C(=O)NCc2c(C)cc(C)[nH]c2=O)c1C)C1CCOCC1 | Active | 1480 | 29800 | 6500 |  |  | 
6 | CCN(c1cc(-c2ccc(NC(=O)CCCCCCCNC(=O)C[C@@H]3N=C(c4ccc(Cl)cc4)c4c(sc(C)c4C)-n4c(C)nnc43)cc2)cc(C(=O)NCc2c(C)cc(C)[nH]c2=O)c1C)C1CCOCC1 |  | 2340 | 550 | 17500 |  |  | 
7 | CCN(c1cc(-c2ccc(NC(=O)C[C@@H]3N=C(c4ccc(Cl)cc4)c4c(sc(C)c4C)-n4c(C)nnc43)cc2)cc(C(=O)NCc2c(C)cc(C)[nH]c2=O)c1C)C1CCOCC1 |  | 2840 | 16100 | 13800 |  |  | 
8 | CCN(c1cc(-c2ccc(OCCCNC(=O)C[C@@H]3N=C(c4ccc(Cl)cc4)c4c(sc(C)c4C)-n4c(C)nnc43)cc2)cc(C(=O)NCc2c(C)cc(C)[nH]c2=O)c1C)C1CCOCC1 |  | 1720 | 980 | 1370 |  | Active | 
9 | CCN(c1cc(-c2ccc(NC(=O)CCCCCCNC(=O)C[C@@H]3N=C(c4ccc(Cl)cc4)c4c(sc(C)c4C)-n4c(C)nnc43)cc2)cc(C(=O)NCc2c(C)cc(C)[nH]c2=O)c1C)C1CCOCC1 |  | 580 | 530 | 11200 |  |  | 
10 | Cc1sc2c(c1C)C(c1ccc(Cl)cc1)=N[C@@H](CC(=O)OC(C)(C)C)c1nnc(C)n1-2 |  |  |  |  | 20.3 |  | 3390
11 | CCN(c1cc(-c2ccc(C(=O)NCCOCCNC(=O)C[C@@H]3N=C(c4ccc(Cl)cc4)c4c(sc(C)c4C)-n4c(C)nnc43)cc2)cc(C(=O)NCc2c(C)cc(C)[nH]c2=O)c1C)C1CCOCC1 | Active | 248 | 300 | 7090 |  |  | 
12 | CCN(c1cc(-c2ccc(OCCNC(=O)C[C@@H]3N=C(c4ccc(Cl)cc4)c4c(sc(C)c4C)-n4c(C)nnc43)cc2)cc(C(=O)NCc2c(C)cc(C)[nH]c2=O)c1C)C1CCOCC1 |  | 1540 | 7550 | 1860 |  | Active | 

From ChEMBL document CHEMBL5154900, “Design and Synthesis of Dual EZH2/BRD4 Inhibitors to Target Solid Tumors” (J Med Chem, 2022)
